Experimental data published in patent US8138374B2, “Composition for external application to skin” (Shiseido Company, Ltd., priority 2007, dated 2012).

Assay: Solubility evaluation (appearance and solubility)
Assay type: physicochemical
Details: for Solubility (%) Ethanol / Appearance (Room Temperature) / Solubility (%) Water: room temperature; for Solubility (%) Ethanol / Solubility (%) Water: judged by appearance, ">" = concentration at which dissolution was confirmed, actual solubility greater than or equal
Protocol: Furthermore, dissolution was evaluated based on appearance after preparing a solution at room temperature. The solubilities shown in the table indicate the concentration at which dissolution was confirmed, and those results shown with a “>” symbol in the table indicate the concentration at which the substance was confirmed to dissolve, and actual solubility is greater than or equal to this concentration.

Row | Compound | Solubility (%) Ethanol (ethanol) [%] | Appearance (Room Temperature) | Solubility (%) Water (water) [%] | solubility in ethanol (in words) (ethanol) | solubility in water (in words) (water)
1 | CNCC(=O)N(C)C.Cl [N,N-dimethyl-2-(methylamino)acetoamide hydrochloride] | >14.1 | White crystal | >77 | – | –
2 | CNCC(=O)N(C)C [N,N-dimethyl-2-(methylamino)acetoamide] | >58 | Liquid | >55 | – | –
3 | CNCC(=O)O [Sarcosine, reference compound] | 0.10 | – | 71.5 | poorly soluble | high solubility
